In patent publication US20150011466A1, “APJ Receptor Compounds” (priority 2012, published 2015):
Like-named read-outs stand apart in the source and are kept apart here. Where a SMILES comes first, the peptide text is derived from it. [ ]: non-standard residue; d: D form. The star is where a group is joined. Lithocholoyl = C[C@H](CCC(=O)*)[C@H]1CC[C@H]2[C@@H]3CC[C@@H]4C[C@H](O)CC[C@]4(C)[C@H]3CC[C@]12C; Palmitoyl = CCCCCCCCCCCCCCCC(=O)*

Experiments:
[1] = Histimine (% vs. 48/40)
[2] = target: T1, Gi-coupled receptor APJ (Homo sapiens, UniProt P35414); experiment: HTRF cAMP assay, inhibition of NKH477 stimulated cAMP in HEK cells stably expressing APJ (APJ-h HEK 293 cells); format: cell-based; conditions: HEK cells stably expressing APJ
T1 sequence (P35414 1-380): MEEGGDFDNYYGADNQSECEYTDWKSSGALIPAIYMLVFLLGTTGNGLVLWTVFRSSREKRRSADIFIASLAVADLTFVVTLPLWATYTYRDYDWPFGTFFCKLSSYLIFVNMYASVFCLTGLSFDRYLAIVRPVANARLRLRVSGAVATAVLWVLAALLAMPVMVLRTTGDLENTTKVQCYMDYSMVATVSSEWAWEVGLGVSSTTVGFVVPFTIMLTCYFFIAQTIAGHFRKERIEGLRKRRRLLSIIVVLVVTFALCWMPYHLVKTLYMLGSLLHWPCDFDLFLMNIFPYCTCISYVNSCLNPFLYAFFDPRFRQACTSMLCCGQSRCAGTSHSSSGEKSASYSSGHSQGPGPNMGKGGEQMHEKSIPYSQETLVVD
From the text: HTRF (homogeneous time resolved fluorescence) is a technology developed by Cisbio Bioassays based on TR-FRET (time-resolved fluorescence resonance energy transfer). Cisbio Bioassays has developed a wide selection of HTRF-based assays compatible with whole cells, thereby enabling functional assays to run under more physiological conditions. The IP-One assays are competitive immunoassays using cryptate-labeled anti-IP1 monoclonal antibody and d2-labeled IP1. IP1 is a relatively stable downstream metabolite of IP3, and accumulates in cells following Gq receptor activation.
cAMP kits based on a competitive immunoassay using cryptate-labeled anti-cAMP antibody and d2-labeled cAMP were used to assay the effects of APJ compounds of the present invention. […] Cells are treated with […] doxycycline and seeded in all white 96 well plates @ 40 k/well overnight.

[3] = target: T2, APJ receptor (Homo sapiens, UniProt P35414); experiment: HTRF cAMP assay, inhibition of NKH477 stimulated cAMP in Human TRex cells expressing APJ upon doxycycline induction (APJ-hTREX); format: cell-based; conditions: for Ranking: class combining EC50 and % histamine; for percent intrinsic activity at 0.3 µM: read-out: % IA (@ 300 nM)
T2 construct: expressed in transfected cells; host or cells: Human TRex cells (doxycycline-inducible)
T2 sequence (P35414 1-380): T1 sequence (P35414 1-380)
Method in brief: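 Cells stimulated with NKH477 and cAMP measured by HTRF competitive immunoassay (cryptate anti-cAMP antibody, d2-labeled cAMP). APJ-hTREX cells induced with […] doxycycline and seeded overnight at 40 k/well.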

[4] = target: T3, APJ receptor (β-arrestin recruitment) (Homo sapiens, UniProt P35414); experiment: β-Arrestin signaling assay (DiscoveRx PathHunter, enzyme fragment complementation); format: cell-based; conditions: for β-arrestin recruitment (dose dependent increase in chemiluminescence): in words; for Emax: read-out: β-arrestin Signaling Max Response
T3 sequence (P35414 1-380): T1 sequence (P35414 1-380)
From the text: Activation of the β-Arrestin signaling pathway was monitored using the commercially available DiscoveRx PathHunter® assay. This assay employs a homogenous, non-imaging assay format called Enzyme Fragment Complementation (EFC) using β-galactosidase (β-Gal) as the functional reporter. […] EA is fused to β-Arrestin and ED is fused to the GPCR of interest. When the GPCR is activated and β-Arrestin is recruited to the receptor, ED and EA complementation occurs, restoring βGal activity which is measured using chemiluminescent PathHunter® Detection Reagent.

Row | Structure (SMILES) | Histimine (% vs. 48/40) [1] | inhibition of NKH477 stimulated increase in cAMP (concentration response curves, FIGS. 1A-1E) [2] | EC50 [3] | Ranking [3] | percent intrinsic activity at 0.3 µM [3] | β-arrestin recruitment (dose dependent increase in chemiluminescence) [4] | Emax [4] | EC50 ([3]; inhibition of NKH477 stimulated cAMP, APJ-hTREX cells, read-out: APJ-hTREX EC50) | EC50 ([4]; PathHunter chemiluminescence, read-out: β-arrestin Signaling EC50)
1 | CCCCCCCCCCCCCCCC(=O)N[C@H](C(=O)N[C@H](C(=O)N[C@@H](Cc1ccccc1)C(=O)N[C@@H](CCCNC(=N)N)C(=O)N[C@@H](CO)C(=O)N[C@@H](CO)C(=O)N[C@@H](CCC(=O)O)C(=O)N[C@H](CCCCN)C(=O)N[C@@H](CCCNC(=N)N)C(=O)N[C@@H](CCCNC(=N)N)C(=O)N[C@@H](CO)C(=O)N[C@@H](C)C(=O)N[C@@H](CC(=O)O)C(=O)N[C@H](C(=O)N[C@@H](Cc1ccccc1)C(=O)N[C@H](C(N)=O)[C@@H](C)CC)[C@@H](C)CC)C(C)C)[C@@H](C)O [Compound 1] (Palmitoyl-TVFRSSE[dK]RRSADIFI-NH2) | 33% | in a dose dependent manner | 0.0567 µM | ***** (EC50<100 nM and % histamine<35%) | 81% | – | – | – | –
2 | CCCCCCCCCCCCCCCC(=O)N[C@@H](CCC(N)=O)C(=O)N[C@H](C(=O)N[C@@H](Cc1ccccc1)C(=O)N[C@@H](CCCNC(=N)N)C(=O)N[C@@H](CO)C(=O)N[C@@H](CO)C(=O)N[C@@H](CCC(=O)O)C(=O)N[C@H](CCCCN)C(=O)N[C@@H](CCCNC(=N)N)C(=O)N[C@@H](CCCNC(=N)N)C(=O)N[C@@H](CO)C(=O)N[C@@H](C)C(=O)N[C@@H](CC(=O)O)C(=O)N[C@H](C(=O)N[C@@H](Cc1ccccc1)C(=O)N[C@H](C(N)=O)[C@@H](C)CC)[C@@H](C)CC)C(C)C [Compound 20] (Palmitoyl-QVFRSSE[dK]RRSADIFI-NH2) | 29% | in a dose dependent manner | 0.0607 µM | ***** (EC50<100 nM and % histamine<35%) | 61% | – | – | – | –
3 | CCCCCCCCCCCCCCCC(=O)N[C@H](C(=O)N[C@H](C(=O)N[C@@H](Cc1ccccc1)C(=O)N[C@@H](CCCNC(=N)N)C(=O)NCC(=O)N[C@@H](CO)C(=O)N[C@@H](CCC(=O)O)C(=O)N[C@H](CCCCN)C(=O)N[C@@H](CCCNC(=N)N)C(=O)N[C@@H](CCCNC(=N)N)C(=O)N[C@@H](CO)C(=O)N[C@@H](C)C(=O)N[C@@H](CC(=O)O)C(=O)N[C@H](C(=O)N[C@@H](Cc1ccccc1)C(=O)N[C@H](C(N)=O)[C@@H](C)CC)[C@@H](C)CC)C(C)C)[C@@H](C)O [Compound 72] (Palmitoyl-TVFRGSE[dK]RRSADIFI-NH2; C-terminus assumed) | 44% | – | 0.134 µM | ** (EC50 101-500 nM and % histamine>35%) | 75% | – | – | – | –
4 | CCCCCCCCCCCCCCCC(=O)N[C@H](C(=O)N[C@H](C(=O)N[C@@H](Cc1ccccc1)C(=O)N[C@@H](CCCNC(=N)N)C(=O)N[C@@H](CO)C(=O)N[C@@H](CO)C(=O)N[C@@H](CCC(=O)O)C(=O)N[C@H](CCCCN)C(=O)N[C@@H](CCCNC(=N)N)C(=O)NCC(=O)N[C@@H](CO)C(=O)N[C@@H](C)C(=O)N[C@@H](CC(=O)O)C(=O)N[C@H](C(=O)N[C@@H](Cc1ccccc1)C(=O)N[C@H](C(N)=O)[C@@H](C)CC)[C@@H](C)CC)C(C)C)[C@@H](C)O [Compound 76] (Palmitoyl-TVFRSSE[dK]RGSADIFI-NH2) | 25% | – | – | – | 46% | – | – | – | –
5 | CCCCCCCCCCCCCCCC(=O)N[C@H](C(=O)N[C@H](C(=O)N[C@@H](Cc1ccccc1)C(=O)N[C@@H](CCCNC(=N)N)C(=O)N[C@@H](CO)C(=O)N[C@@H](CO)C(=O)N[C@@H](CCC(=O)O)C(=O)N[C@H](CCCCN)C(=O)N[C@@H](CCCNC(=N)N)C(=O)N[C@@H](CCCNC(=N)N)C(=O)NCC(=O)N[C@@H](C)C(=O)N[C@@H](CC(=O)O)C(=O)N[C@H](C(=O)N[C@@H](Cc1ccccc1)C(=O)N[C@H](C(N)=O)[C@@H](C)CC)[C@@H](C)CC)C(C)C)[C@@H](C)O [Compound 77] (Palmitoyl-TVFRSSE[dK]RRGADIFI-NH2) | 53% | – | – | – | 64% | – | – | – | –
6 | CCCCCCCCCCCCCCCC(=O)N[C@H](C(=O)N[C@H](C(=O)N[C@@H](Cc1ccccc1)C(=O)N[C@@H](CCCNC(=N)N)C(=O)N[C@@H](CO)C(=O)N[C@@H](CO)C(=O)N[C@@H](CCC(=O)O)C(=O)N[C@H](CCCCN)C(=O)N[C@@H](CCCNC(=N)N)C(=O)N[C@@H](CCCNC(=N)N)C(=O)N[C@@H](CO)C(=O)N[C@@H](C)C(=O)NCC(=O)N[C@H](C(=O)N[C@@H](Cc1ccccc1)C(=O)N[C@H](C(N)=O)[C@@H](C)CC)[C@@H](C)CC)C(C)C)[C@@H](C)O [Compound 78] (Palmitoyl-TVFRSSE[dK]RRSAGIFI-NH2) | 62% | – | – | – | 60% | – | – | – | –
7 | CCCCCCCCCCCCCCCC(=O)N[C@H](C(=O)N[C@H](C(=O)N[C@@H](Cc1ccccc1)C(=O)N[C@@H](CCCNC(=N)N)C(=O)N[C@@H](CO)C(=O)N[C@@H](CO)C(=O)N[C@@H](CCC(=O)O)C(=O)N[C@H](CCCCN)C(=O)N[C@@H](CCCNC(=N)N)C(=O)N[C@@H](CCCNC(=N)N)C(=O)N[C@@H](CO)C(=O)N[C@@H](C)C(=O)N[C@@H](CC(=O)O)C(=O)N[C@H](C(=O)NCC(=O)N[C@H](C(N)=O)[C@@H](C)CC)[C@@H](C)CC)C(C)C)[C@@H](C)O [Compound 79] (Palmitoyl-TVFRSSE[dK]RRSADIGI-NH2) | 43% | – | – | – | 39% | – | – | – | –
8 | CCCCCCCCCCCCCCCC(=O)N[C@H](C(=O)N[C@H](C(=O)N[C@@H](Cc1ccccc1)C(=O)N[C@@H](CCCNC(=N)N)C(=O)N[C@@H](CO)C(=O)N[C@@H](CO)C(=O)N[C@@H](CCC(=O)O)C(=O)N[C@H](CCCCN)C(=O)N[C@@H](CCCNC(=N)N)C(=O)N[C@@H](CCCNC(=N)N)C(=O)N[C@@H](CO)C(=O)N[C@@H](C)C(=O)N[C@@H](CC(=O)O)C(=O)N[C@H](C(=O)N[C@@H](Cc1ccccc1)C(=O)NCC(N)=O)[C@@H](C)CC)C(C)C)[C@@H](C)O [Compound 80] (Palmitoyl-TVFRSSE[dK]RRSADIFG-NH2) | 52% | – | – | – | 35% | – | – | – | –
9 | CC[C@H](C)[C@H](NC(=O)[C@H](Cc1ccccc1)NC(=O)[C@@H](NC(=O)[C@H](CC(=O)O)NC(=O)[C@H](C)NC(=O)[C@H](CO)NC(=O)[C@H](CCCNC(=N)N)NC(=O)[C@H](CCCNC(=N)N)NC(=O)[C@H](CCCCN)NC(=O)[C@H](CCC(=O)O)NC(=O)[C@H](CO)NC(=O)[C@H](CO)NC(=O)[C@H](CCCNC(=N)N)NC(=O)[C@H](CC(=O)O)NC(=O)[C@@H](NC(=O)[C@@H](NC(=O)CC[C@@H](C)[C@H]1CC[C@H]2[C@@H]3CC[C@@H]4C[C@H](O)CC[C@]4(C)[C@H]3CC[C@]12C)[C@@H](C)O)C(C)C)[C@@H](C)CC)C(N)=O [Compound 82] (Lithocholoyl-TVDRSSEKRRSADIFI-NH2; N-terminus assumed) | – | – | – | – | – | weakly engaged | 20% | – | –
10 | CCCCCCCCCCCCCCCC(=O)N[C@H](C(=O)N[C@H](C(=O)N[C@@H](Cc1ccccc1)C(=O)N[C@@H](CCC(N)=O)C(=O)N[C@@H](CO)C(=O)N[C@@H](CCC(=O)O)C(=O)N[C@H](CCCCN)C(=O)N[C@@H](CCCNC(=N)N)C(=O)N[C@@H](CCCNC(=N)N)C(=O)N[C@@H](CO)C(=O)N[C@@H](C)C(=O)N[C@@H](CC(=O)O)C(=O)N[C@@H](CCC(N)=O)C(=O)N[C@@H](Cc1ccccc1)C(=O)N[C@H](C(N)=O)[C@@H](C)CC)C(C)C)[C@@H](C)O [Compound 87] (Palmitoyl-TVFQSE[dK]RRSADQFI-NH2; C-terminus assumed) | 48% | – | – | *** (EC50<100 nM and % histamine>35%) | – | weakly engaged | 47% | 0.011 µM | 0.0344 µM
